This is an account of results in PMC6208348 (Nature Communications, 2018).

Each structure is given as a SMILES string. pKd: −log10 of the molar value.

For assay [1], the target named is T1, L. longbeachae LUSH SH2 domain (Legionella longbeachae, UniProt D3HPG5).
T1 construct: gene LLO_0448
The assay is classed as binding.

In a further assay the target is T2, L. longbeachae LeSH (Legionella longbeachae, UniProt D3HJY4).
T2 construct: gene LLO_2327
T2 sequence (D3HJY4 1-167 limits assumed): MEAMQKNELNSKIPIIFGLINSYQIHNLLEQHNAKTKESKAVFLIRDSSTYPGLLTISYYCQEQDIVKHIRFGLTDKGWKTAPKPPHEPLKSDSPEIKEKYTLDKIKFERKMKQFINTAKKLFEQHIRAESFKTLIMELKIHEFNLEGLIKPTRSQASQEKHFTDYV

T1 sequence (D3HPG5 3-171 limits assumed): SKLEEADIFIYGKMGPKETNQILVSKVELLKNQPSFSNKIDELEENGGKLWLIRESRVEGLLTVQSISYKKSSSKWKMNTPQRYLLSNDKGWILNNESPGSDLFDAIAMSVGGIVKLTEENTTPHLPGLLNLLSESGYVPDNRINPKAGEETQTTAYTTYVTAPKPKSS

For orientation: pKd means the Kd on a negative log10 scale, so that one unit is a factor of ten. Read a high pKd as a small Kd. As for `N[C@@H](Cc1ccc(OP(=O)(O)O)cc1)C(=O)NCC(=O)O` [pY-G dipeptide], the pKd in assay [1] is 6.09.

For `N[C@@H](Cc1ccc(OP(=O)(O)O)cc1)C(=O)O` [phosphotyrosine], the “X-ray crystal structure of complex” value on L. longbeachae LeSH is “crystal structures of LeSH in complex with three different pTyr ligands, including the phosphotyrosine itself”.
